Columns and labels:
Male ICR mouse = experiment: Hyperactivity (quantity of motion) induced by MK-801 in mice; assay type: in vivo; conditions: MK-801 0.3 mg/kg, P<0.05
Description: The improvement effect of compound of formula (I) on schizophrenia was evaluated by measuring the quantity of motion inhibited by administration of the compound in a model in which the symptoms were induced by methamphetamine (hereinafter abbreviated as MAP) and MK-801.
The animal was taken out of a breeding cage, orally administered with a test compound, and then placed into a cage for breeding. After 30 minutes, the animal was put into a cage for measurement, and the quantity of motion with the test compound alone was measured. Further, after 30 to 90 minutes, the animal was taken out, and subcutaneously or intraperitoneally administered with a drug for increasing the quantity of motion (MAP; 1.5 mg/kg or MK-801; 0.3 mg/kg, dissolved in physiological saline, respectively). Then, the quantity of motion for a certain period of time (60 minutes) was measured using a device for measuring the quantity of motion (CompACT AMS manufactured by Muromachi Kikai Co., Ltd.) by means of an infrared sensor.
For a normal mouse (a mouse administered with physiological saline) and a mouse administered with a drug for increasing the quantity of motion, a Student's T test was performed for evaluation for each interval. For a group administered with the test compound, an assay was performed using a solvent (vehicle) group and a Dunnett's T test. For the evaluation, if there was a significant difference (P<0.05), it was considered that there is an effect.

human 5-HT5A receptor = human 5-HT5A receptor (Homo sapiens (Human), UniProt P47898); experiment: Test on a human 5-HT5A receptor binding inhibition ([3H]5-CT); conditions: membrane from HEK293 cells expressing human 5-HT5A receptor, Ki calculated from IC50
Chain of human 5-HT5A receptor (P47898 whole entry): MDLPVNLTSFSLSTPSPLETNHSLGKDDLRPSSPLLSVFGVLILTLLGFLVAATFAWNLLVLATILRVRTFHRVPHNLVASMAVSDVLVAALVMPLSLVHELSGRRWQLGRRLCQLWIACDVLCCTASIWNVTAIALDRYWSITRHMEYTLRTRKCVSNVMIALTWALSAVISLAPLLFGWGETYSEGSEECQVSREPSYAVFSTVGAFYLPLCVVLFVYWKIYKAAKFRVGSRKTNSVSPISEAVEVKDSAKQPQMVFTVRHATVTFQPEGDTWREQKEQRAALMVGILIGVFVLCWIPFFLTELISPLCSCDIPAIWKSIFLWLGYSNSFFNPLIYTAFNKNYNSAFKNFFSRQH
Description: The ORF (open reading frame; protein coding region) of a human 5-HT5A receptor (Genbank AF498985) was cloned from a human hippocampus cDNA library, and then inserted into a pCR2.1 vector (Invitrogen), and Escherichia coli containing the plasmid was cultured in a large amount. Next, the full-length cDNA sequence of the human 5-HT5A receptor was analyzed, and recombined into a pCDNA3.1 vector (Invitrogen) as an expression vector and cultured in a large amount. HEK293 established cells (ATCC) derived from the human fetal kidney were seeded, the expression plasmid (1 μg) obtained above were added thereto with LIPOFECTAMINE 2000 (Invitrogen; 2 μl), the gene was transfected into HEK293 cells, and the expression cells were screened with a drug-resistant marker, Geneticin (G418 sulfate 500 μg/ml; Kanto Chemical Co., Inc.). Thus prepared recombinant cells which expressed the gene were cultured in a medium containing D-MEM (Dulbecco's modified eagle medium, Sigma), 10% FCS (Fetal calf serum: fetal bovine serum), 1% Pc./Sm (Penicillin/Streptomycin, Invitrogen), and 500 μg/ml G418 for 3 days. These experimental operations followed a manual for gene operation experiment and an instruction appended in a reagent, and the like, such as a known method (Sambrook, J. et al, Molecular Cloning-A Laboratory Manual”, Cold Spring Harabor laboratory, NY, 1989).
HEK293 cells for forced expressions of a human 5-HT5A receptor were cultured in a F500 plate, and scraped with a scraper. After centrifugation, the precipitate was collected, and an incubation buffer (50 mM Tris (HCl) (pH 7.4), 10 mM MgSO4, and 0.5 mM EDTA (ethylenediamine tetraacetic acid)) was added thereto. After homogenization, it was further centrifuged, and the incubation buffer was added to the precipitate, followed by thoroughly suspending. The operation was repeated, and protein concentration was measured, thereby completing preparation of the membrane.
A solution of the compound to be tested and 100 μM 5-CT (5-carboxamidetriptamine) in DMSO was added to a 96-well plate at 2 μl/well, suspended in an incubation buffer, and a membrane from HEK293 cells for forced expressions of a human 5-HT5A receptor prepared at 200 μg/ml was added at 100 μl/well. After incubation at room temperature for 15 minutes, a [^3H]5-CT solution (2 nM [^3H]5-CT, incubation buffer) was added thereto at 100 μl/well.
Separately, 100 μl of the solution was distributed into a liquid scintillation vial, and 2 ml of Aquasol II (registered trademark) was added thereto, followed by stirring. Then, radioactivity was measured by a liquid scintillation counter. It was incubated at 37° C. for 60 minutes. The reaction mixture was sucked into 96-well GF/C filter plate that had been pre-treated with 0.2% polyethyleneimine, and washed six times with an ice-cooled, 50 mM Tris (pH 7.5) buffer. The GF/C filter plate was dried.
Microscint TMPS (registered trademark) was added thereto at 40 μl/well. Radioactivity remaining on the GF/C filter plate was measured by a top counter.
The [^3H]5-CT binding inhibiting activity by the compound to be tested in each experiment was determined as an IC50 value with a radioactivity upon addition of DMSO alone being 0% inhibition, and a radioactivity upon addition of 1 μM 5-CT being 100% inhibition. Separately, Ki values were calculated from the Kd value of the [^3H]5-CT determined from Scatchard analysis, by the following equation. Ki=IC50(1+Concentraion of ligand added/Kd(4.95 nM))

Male ddY mouse = experiment: Spontaneous alternation behavior (Y-maze) induced by Scoporamine in mice; assay type: in vivo; conditions: oral dose 0.001 mg/kg, Scoporamine 0.5 mg/kg i.p.
Description: The improvement effect of compound of formula (I) on cognitive impairment of dementia and schizophrenia was evaluated by a known test method as a model with short-term learning disorder.
After 10 to 30 minutes from oral administration of the test compound, 0.5 mg/kg of Scoporamine or 0.15 mg/kg of MK-801 (in the case of a normal group, physiological saline was administered) was intraperitoneally administered. After 20 minutes, the test was conducted. In addition, solvent (vehicle) was orally administered to the normal group (to which physiological saline was administered) and to the control group (to which 0.5 mg/kg of Scoporamine or 0.15 mg/kg of MK-801 was administered), when the test compound was administered.
A mouse was placed at the end of one arm of a Y-maze having arms with the same length in three directions, and then allowed to explore freely and the number of arm entries was counted for 8 minutes. Further, spontaneous alternation behavior was defined as entries into all three different arms on consecutive occasions, and the ratio of the number of instances of this behavior to the total number of the entries was calculated as an alternation rate by the following formula: Alternation rate(%)=Number of spontaneous alternation behaviors/(Total number of entries−2)×100.
If a significant difference between the normal group and the control group (Student's T test) was approved in the alternation rate (%), it was considered to have learning disorder by the administration of Scoporamine or MK-801. By carrying out a Dunnett's test on the group administered with the test compound with respect to the control group, the presence or absence of effect of the test compound on learning disorder was evaluated. For each assay, it was considered that there was a tendency when p<0.10 and there was a significant difference when p<0.05.

Ki (human 5-HT5A receptor; [3H]5-CT binding)	SMILES	also measured
1 to 10 nM	NC(N)=NC(=O)c1ccc2ncc(Cl)c(-c3ccc(F)cc3)c2c1 [Example 73]	hyperactivity induced by MK-801 (Male ICR mouse; oral dose 0.1 mg/kg): significantly inhibited
	Cc1cnc(-c2c(F)cc(F)cc2F)c2cc(C(=O)N=C(N)N)ccc12 [Example 152]	Ki (human 5-HT5A receptor; [3H]5-CT binding inhibition): 1.3 nM
1 to 10 nM	Cc1nc(-c2c(F)cc(F)cc2F)c2cc(C(=O)N=C(N)N)ccc2c1F [Example 154]	
10 to 100 nM	Cc1cc2ccc(C(=O)N=C(N)N)cc2c(-c2c(F)cccc2F)n1 [Example 155]	
10 to 100 nM	NC(N)=NC(=O)c1ccc2c(C3CC3)cnc(-c3c(F)cccc3F)c2c1 [Example 156]	
1 to 10 nM	NC(N)=NC(=O)c1ccc2c(F)cnc(-c3c(F)cncc3F)c2c1 [Example 157]	hyperactivity induced by MK-801 (Male ICR mouse; oral dose 0.03 mg/kg): significantly inhibited; Ki (human 5-HT5A receptor; [3H]5-CT binding inhibition): 5.3 nM; spontaneous alternation behavior induced by Scoporamine (Male ddY mouse): significantly inhibited
10 to 100 nM	CC(C)c1cnc(-c2c(F)cccc2F)c2cc(C(=O)N=C(N)N)ccc12 [Example 158]	
1 to 10 nM	COc1cccc(F)c1-c1ncc(F)c2ccc(C(=O)N=C(N)N)cc12 [Example 159]	Ki (human 5-HT5A receptor; [3H]5-CT binding inhibition): 7.1 nM
1 to 10 nM	NC(N)=NC(=O)c1ccc2c(F)cnc(-c3ccccc3Cl)c2c1 [Example 161]	Ki (human 5-HT5A receptor; [3H]5-CT binding inhibition): 3.4 nM
	NC(N)=NC(=O)c1ccc2c(Cl)cnc(-c3c(F)cccc3F)c2c1 [Example 162]	Ki (human 5-HT5A receptor; [3H]5-CT binding inhibition): 1.2 nM
10 to 100 nM	NC(N)=NC(=O)c1ccc2c(F)cnc(-c3ccncc3Cl)c2c1 [Example 163]	
1 to 10 nM	NC(N)=NC(=O)c1ccc2c(F)cnc(-c3c(F)cncc3Cl)c2c1 [Example 164]	Ki (human 5-HT5A receptor; [3H]5-CT binding inhibition): 4.7 nM
10 to 100 nM	NC(N)=NC(=O)c1ccc2c(F)cnc(-c3ccncc3F)c2c1 [Example 165]	
1 to 10 nM	COc1cccc(F)c1-c1ncc(Cl)c2ccc(C(=O)N=C(N)N)cc12 [Example 166]	
	Cc1cnc(-c2c(F)cccc2F)c2cc(C(=O)N=C(N)N)ccc12 [Example 170]	Ki (human 5-HT5A receptor; [3H]5-CT binding inhibition): 1.9 nM
	NC(N)=NC(=O)c1ccc2c(F)cnc(-c3ncc(F)cc3Cl)c2c1 [Example 171]	Ki (human 5-HT5A receptor; [3H]5-CT binding inhibition): 6.2 nM
1 to 10 nM	CCc1cnc(-c2c(F)cccc2F)c2cc(C(=O)N=C(N)N)ccc12 [Example 172]	
10 to 100 nM	NC(N)=NC(=O)c1ccc2c(Cl)cnc(-c3ccncc3F)c2c1 [Example 173]	
10 to 100 nM	COc1cc(F)ccc1-c1ncc(Cl)c2ccc(C(=O)N=C(N)N)cc12 [Example 174]	
1 to 10 nM	NC(N)=NC(=O)c1ccc2c(Cl)cnc(-c3ccccc3F)c2c1 [Example 175]	
1 to 10 nM	NC(N)=NC(=O)c1ccc2c(F)cnc(-c3ccc(F)cc3)c2c1 [Example 190]	
10 to 100 nM	NC(N)=NC(=O)c1ccc2c(F)cnc(-c3ccc(Cl)cc3)c2c1 [Example 191]	
1 to 10 nM	NC(N)=NC(=O)c1ccc2c(Cl)cnc(-c3ccc(Cl)cc3F)c2c1 [Example 195]	

Ki (human 5-HT5A receptor; [3H]5-CT binding)	SMILES	also measured
10 to 100 nM	NC(N)=NC(=O)c1ccc2c(C(F)(F)F)cnc(-c3c(F)cccc3F)c2c1 [Example 196]	
1 to 10 nM	COc1cnc(-c2c(F)cccc2F)c2cc(C(=O)N=C(N)N)ccc12 [Example 197]	
1 to 10 nM	NC(N)=NC(=O)c1ccc2c(Cl)cnc(C3CC3)c2c1 [Example 198]	
10 to 100 nM	NC(N)=NC(=O)c1ccc2c(F)cnc(-c3cccc(Cl)c3O)c2c1 [Example 199]	
1 to 10 nM	NC(N)=NC(=O)c1ccc2c(F)cnc(-c3cccc(F)c3Cl)c2c1 [Example 200]	
1 to 10 nM	NC(N)=NC(=O)c1ccc2c(F)cnc(-c3cccc(Cl)c3F)c2c1 [Example 201]	
10 to 100 nM	COc1cc(F)ccc1-c1ncc(F)c2ccc(C(=O)N=C(N)N)cc12 [Example 202]	
1 to 10 nM	COc1cccc(Cl)c1-c1ncc(F)c2ccc(C(=O)N=C(N)N)cc12 [Example 203]	
10 to 100 nM	COc1cc(Cl)ccc1-c1ncc(F)c2ccc(C(=O)N=C(N)N)cc12 [Example 204]	
10 to 100 nM	NC(N)=NC(=O)c1ccc2c(F)cnc(-c3cccc(F)c3F)c2c1 [Example 205]	
1 to 10 nM	Cc1cnc(-c2c(F)cccc2Cl)c2cc(C(=O)N=C(N)N)ccc12 [Example 206]	
1 to 10 nM	NC(N)=NC(=O)c1ccc2c(Cl)cnc(-c3ccc(F)cc3F)c2c1 [Example 211]	Ki (human 5-HT5A receptor; [3H]5-CT binding inhibition): 2.3 nM
10 to 100 nM	NC(N)=NC(=O)c1ccc2c(Cl)cnc(-c3cc(F)c(F)cc3F)c2c1 [Example 212]	
1 to 10 nM	Cc1ccccc1-c1ncc(Cl)c2ccc(C(=O)N=C(N)N)cc12 [Example 213]	
1 to 10 nM	NC(N)=NC(=O)c1ccc2c(Cl)cnc(-c3cc(F)ccc3F)c2c1 [Example 214]	
10 to 100 nM	NC(N)=NC(=O)c1ccc2c(C(F)F)cnc(-c3ccccc3F)c2c1 [Example 215]	
1 to 10 nM	NC(N)=NC(=O)c1ccc2c(F)cnc(-c3c(O)cccc3F)c2c1 [Example 216]	
1 to 10 nM	Cc1cccc(C)c1-c1ncc(Cl)c2ccc(C(=O)N=C(N)N)cc12 [Example 222]	
10 to 100 nM	NC(N)=NC(=O)c1ccc2c(CO)cnc(-c3c(F)cccc3F)c2c1 [Example 224]	
100 to 300 nM	NC(N)=NC(=O)c1ccc2cccc(-c3ccccc3)c2n1 [Example 225]	
1 to 10 nM	NC(N)=NC(=O)c1ccc2cccc(-c3c(F)cc(F)cc3F)c2n1 [Example 226]	
10 to 100 nM	NC(N)=NC(=O)c1cnc2cccc(-c3c(F)cc(F)cc3F)c2c1 [Example 227]	
10 to 100 nM	NC(N)=NC(=O)c1ccc2cncc(-c3ccc(F)cc3F)c2c1 [Example 228]	

From patent US8853242B2, “Nitrogenous-ring acylguanidine derivative” (Astellas Pharma Inc., priority 2009, dated 2014)
